Experimental data taken from patent US7375109B2, “Glycine-substituted thieno[2,3-d]pyrimidines with combined LH and FSH agonistic activity” (N.V. Organon, priority 2001, dated 2008).

Key:
[1] = target: T1, human LH receptor (Homo sapiens, UniProt P22888); experiment: CHO-LH in vitro bioactivity (CRE-luciferase reporter); format: cell-based; conditions: CHO cells stably transfected with human LH receptor
T1 construct: expressed in transfected cells; host or cells: Chinese Hamster Ovary (CHO) cells, stably transfected; cotransfected with CRE-luciferase reporter
T1 sequence (P22888 27-699): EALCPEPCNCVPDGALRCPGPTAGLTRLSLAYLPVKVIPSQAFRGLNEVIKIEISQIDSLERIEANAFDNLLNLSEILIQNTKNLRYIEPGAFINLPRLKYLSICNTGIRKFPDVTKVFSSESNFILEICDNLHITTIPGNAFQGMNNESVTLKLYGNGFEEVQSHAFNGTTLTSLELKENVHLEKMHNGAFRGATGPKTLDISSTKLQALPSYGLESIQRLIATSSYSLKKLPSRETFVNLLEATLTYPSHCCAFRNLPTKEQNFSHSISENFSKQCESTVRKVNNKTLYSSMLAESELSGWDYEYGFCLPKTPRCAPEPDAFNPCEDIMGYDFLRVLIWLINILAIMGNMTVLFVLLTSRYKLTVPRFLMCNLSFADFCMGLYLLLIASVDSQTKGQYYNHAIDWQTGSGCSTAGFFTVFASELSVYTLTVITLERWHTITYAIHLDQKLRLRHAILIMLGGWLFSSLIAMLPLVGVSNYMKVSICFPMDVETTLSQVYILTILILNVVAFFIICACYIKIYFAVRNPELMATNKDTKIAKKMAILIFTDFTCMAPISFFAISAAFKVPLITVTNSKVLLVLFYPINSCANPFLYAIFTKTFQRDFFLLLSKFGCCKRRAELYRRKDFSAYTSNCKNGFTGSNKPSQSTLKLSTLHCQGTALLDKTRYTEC
Description: (§1) It has been shown that compounds of the above mentioned formula I show agonistic LH and FSH activity. […] Typically the FSH activity ranges from an activity of about 0.1% of the LH agonist stimulation to about 10% of the LH agonist stimulation.
(§2) LH agonistic activity of compounds were tested in Chinese Hamster Ovary (CHO) cells stably transfected with the human LH receptor and cotransfected with a cAMP responsive element (CRE)/promotor directing the expression of a firefly luciferase reporter gene. Binding of ligand to the Gs-coupled LH receptor will result in an increase of cAMP, which in turn will induce an increased transactivation of the luciferase reporter construct. The luciferase signal was quantified using a luminescence counter. For test compounds, EC50 values (concentration of test compound causing half-maximal (50%) stimulation) were calculated. For that purpose the software program GraphPad PRISM, version 3.0 (GraphPad software Inc., San Diego) was used.

[2] = target: T2, human FSH receptor (Homo sapiens, UniProt P23945); experiment: CHO-FSH in vitro bioactivity (CRE-luciferase reporter); format: cell-based; conditions: CHO cells transfected with human FSH receptor and luciferase reporter gene
T2 construct: expressed in transfected cells; host or cells: CHO cells transfected with human FSH receptor and CRE-luciferase reporter
T2 sequence (P23945 18-695): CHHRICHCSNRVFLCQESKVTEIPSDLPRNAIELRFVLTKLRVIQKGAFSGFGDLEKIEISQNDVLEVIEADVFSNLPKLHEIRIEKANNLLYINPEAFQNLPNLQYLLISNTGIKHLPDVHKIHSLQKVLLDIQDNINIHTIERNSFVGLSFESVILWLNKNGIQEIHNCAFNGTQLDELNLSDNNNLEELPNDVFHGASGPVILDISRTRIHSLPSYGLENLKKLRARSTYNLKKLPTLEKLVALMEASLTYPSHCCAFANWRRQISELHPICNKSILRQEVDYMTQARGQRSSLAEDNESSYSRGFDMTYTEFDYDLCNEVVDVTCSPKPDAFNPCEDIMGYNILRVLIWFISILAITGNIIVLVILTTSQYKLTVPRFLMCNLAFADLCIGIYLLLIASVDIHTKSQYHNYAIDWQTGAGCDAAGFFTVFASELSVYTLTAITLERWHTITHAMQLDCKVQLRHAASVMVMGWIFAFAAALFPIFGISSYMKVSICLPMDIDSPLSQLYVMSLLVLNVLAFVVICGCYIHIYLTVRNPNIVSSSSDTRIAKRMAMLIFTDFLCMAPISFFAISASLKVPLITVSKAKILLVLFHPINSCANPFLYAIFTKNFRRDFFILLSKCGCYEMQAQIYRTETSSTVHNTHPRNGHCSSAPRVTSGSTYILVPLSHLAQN
Description: as §1, §2
In a similar way FSH agonistic activity of compounds were tested in CHO cells transfected with the luciferase reporter gene and the human FSH receptor.

[3] = system: immature female mice; experiment: In vivo bioactivity: ovulation induction in immature mice; conditions: immature female mice primed with urinary FSH (Humegon 12.5 IU/animal); 50 mg/kg about 48 hours later; killed 24 hours after treatment
Description: To measure LH in vivo activity of compounds, ovulation induction in immature mice can be studied. In this assay immature female mice are primed with urinary FSH and approximately 48 hours later treated with a LH agonistic compound. The animals are killed after LH agonist treatment and the number of ova in the oviduct is microscopically assessed.
To measure in vivo activity of LH/FSH receptor agonistic compounds ovulation induction in immature mice were studied. In this assay immature female mice were primed with urinary FSH (Humegon 12.5 IU/animal). Approximately 48 hours later the animals were treated with a LH/FSH agonistic compound, the preparation of which is described in examples 1, 4, 9 and 17, at a dose-level of 50 mg/kg. The animals were killed 24 hours after LH/FSH agonist treatment and the number of ova in the oviduct was microscopically assessed. On average 10-15 animals were tested. The mean number of ova amounted 8 with the exception of the compound of example 17 (which was 0.4).

COC(=O)CNCC(=O)Nc1cccc(-c2nc(-c3cccs3)nc3sc(C(=O)NC(C)(C)C)c(N)c23)c1 [Example 15, tert-Butyl 5-amino-2-(2-thienyl)-4-(3-((N-(methoxycarbonylmethyl)-glycinyl)-amino)-phenyl)-thieno[2,3-d]pyrimidine-6-carboxamide]
EC50 [1]: 18.2 nM
EC50 [2]: 3210 nM

COCCN(CCOC)CC(=O)Nc1cccc(-c2nc(-c3ccncc3)nc3sc(C(=O)NC(C)(C)C)c(N)c23)c1 [Example 26, tert-Butyl 5-amino-2-(4-pyridyl)-4-(3-((N,N-bis-(2-methoxyethyl)-glycinyl)-amino)-phenyl)-thieno[2,3-d]pyrimidine-6-carboxamide]
EC50 [1]: 38.2 nM
EC50 [2]: 1230 nM

CCN(CCOC)CC(=O)Nc1cccc(-c2nc(OC(C)C)nc3sc(C(=O)NC(C)(C)C)c(N)c23)c1 [Example 24, tert-Butyl 5-amino-2-isopropoxy-4-(3-((N-ethyl-N-(2-methoxyethyl)-glycinyl)-amino)-phenyl)-thieno[2,3-d]pyrimidine-6-carboxamide]
EC50 [1]: 78.2 nM
EC50 [2]: 2510 nM

CCN(CCOC)CC(=O)Nc1cccc(-c2nc(OC)nc3sc(C(=O)NC(C)(C)C)c(N)c23)c1 [Example 22, tert-Butyl 5-amino-2-methoxy-4-(3-((N-ethyl-N-(2-methoxyethyl)-glycinyl)-amino)-phenyl)-thieno[2,3-d]pyrimidine-6-carboxamide]
EC50 [1]: 11.6 nM
EC50 [2]: 953 nM

CCN(CCO)CC(=O)Nc1cccc(-c2nc(-c3ccccc3)nc3sc(C(=O)NC(C)(C)C)c(N)c23)c1 [Example 9, tert-Butyl 5-amino-2-phenyl-4-(3-((N-ethyl-N-(2-hydroxyethyl)-glycinyl)-amino)-phenyl)-thieno[2,3-d]pyrimidine-6-carboxamide]
EC50 [1]: 4.82 nM
EC50 [2]: 606 nM
mean number of ova in the oviduct [3]: 8

CSc1nc(-c2cccc(NC(=O)CNC(C)(C)CO)c2)c2c(N)c(C(=O)NC(C)(C)C)sc2n1 [Example 2, tert-Butyl 5-amino-2-methylthio-4-(3-((N-(1-hydroxy-2-methyl-prop-2-yl) -glycinyl)-amino)-phenyl)-thieno[2,3-d]pyrimidine-6-carboxamide]
EC50 [1]: 5.42 nM
EC50 [2]: 806 nM

COCCN(CCOC)CC(=O)Nc1cccc(-c2nc(SC)nc3sc(C(=O)NC(C)(C)C)c(N)c23)c1 [Example 6, tert-Butyl 5-amino-2-methylthio-4-(3-((N,N-bis-(2-methoxyethyl)-glycinyl)-amino)-phenyl)-thieno[2,3-d]pyrimidine-6-carboxamide]
EC50 [1]: 10 nM
EC50 [2]: 1180 nM

COC(=O)CNCC(=O)Nc1cccc(-c2nc(-c3ccccc3)nc3sc(C(=O)NC(C)(C)C)c(N)c23)c1 [Example 10]
EC50 [1]: 10.1 nM
EC50 [2]: 2480 nM

CC(C)(C)NC(=O)c1sc2nc(-c3ccncc3)nc(-c3cccc(NC(=O)CNC(C)(C)CO)c3)c2c1N [Example 25, tert-Butyl 5-amino-2-(4-pyridyl)-4-(3-((N-(1-hydroxy-2-methyl-prop-2-yl) -glycinyl)-amino)-phenyl)-thieno[2,3-d]pyrimidine-6-carboxamide]
EC50 [1]: 34.7 nM
EC50 [2]: 400 nM

CCNc1nc(-c2cccc(NC(=O)CNCC(=O)OC)c2)c2c(N)c(C(=O)NC(C)(C)C)sc2n1 [Example 19, tert-Butyl 5-amino-2-ethylamino-4-(3-((N-(methoxycarbonylmethyl)-glycinyl)-amino)-phenyl)-thieno[2,3-d]pyrimidine-6-carboxamide]
EC50 [1]: 22.9 nM
EC50 [2]: 2300 nM

CN(CCO)CC(=O)Nc1cccc(-c2nc(N(C)C)nc3sc(C(=O)NC(C)(C)C)c(N)c23)c1 [Example 18, tert-Butyl 5-amino-2-(N,N-dimethylamino)-4-(3-((N-methyl-N-(2-hydroxyethyl)-glycinyl)-amino)-phenyl)-thieno[2,3-d]pyrimidine-6-carboxamide]
EC50 [1]: 14.5 nM
EC50 [2]: 1630 nM

COC(=O)CNCC(=O)Nc1cccc(-c2nc(-c3ccco3)nc3sc(C(=O)NC(C)(C)C)c(N)c23)c1 [Example 13]
EC50 [1]: 12.1 nM
EC50 [2]: 2550 nM

COCCN(CCOC)CC(=O)Nc1cccc(-c2nc(-c3cccs3)nc3sc(C(=O)NC(C)(C)C)c(N)c23)c1 [Example 16, tert-Butyl 5-amino-2-(2-thienyl)-4-(3-((N,N-di-(2-methoxyethyl)-glycinyl)-amino)-phenyl)-thieno[2,3-d]pyrimidine-6-carboxamide]
EC50 [1]: 21.3 nM
EC50 [2]: 6810 nM

CN(CCO)CC(=O)Nc1cccc(-c2nc(-c3cccs3)nc3sc(C(=O)NC(C)(C)C)c(N)c23)c1 [Example 14, tert-Butyl 5-amino-2-(2-thienyl)-4-(3-((N-methyl-N-(2-hydroxyethyl)-glycinyl)-amino)-phenyl)-thieno[2,3-d]pyrimidine-6-carboxamide]
EC50 [1]: 5.28 nM
EC50 [2]: 1440 nM

COC(=O)CNCC(=O)Nc1cccc(-c2nc(SC)nc3sc(C(=O)NC(C)(C)C)c(N)c23)c1 [Example 3, tert-Butyl 5-amino-2-methylthio-4-(3-((N-(methoxycarbonylmethyl)-glycinyl)-amino)-phenyl)-thieno[2,3-d]pyrimidine-6-carboxamide]
EC50 [1]: 5.97 nM
EC50 [2]: 1440 nM

CC(C)(C)NC(=O)c1sc2nc(-c3ccco3)nc(-c3cccc(NC(=O)CNC(C)(C)CO)c3)c2c1N [Example 12]
EC50 [1]: 11.8 nM
EC50 [2]: 2970 nM

C=CCNc1nc(-c2cccc(NC(=O)CNCC(=O)OC)c2)c2c(N)c(C(=O)NC(C)(C)C)sc2n1 [Example 21, tert-Butyl 5-amino-2-allylamino-4-(3-((N-(methoxycarbonylmethyl)-glycinyl)-amino)-phenyl)-thieno[2,3-d]pyrimidine-6-carboxamide]
EC50 [1]: 57 nM
EC50 [2]: 560 nM

CSc1nc(-c2cccc(NC(=O)CNCC(O)CO)c2)c2c(N)c(C(=O)NC(C)(C)C)sc2n1 (centres unmarked) [Example 7]
EC50 [1]: 12.2 nM
EC50 [2]: 1130 nM

COC(=O)[C@H](NCC(=O)Nc1cccc(-c2nc(SC)nc3sc(C(=O)NC(C)(C)C)c(N)c23)c1)C(C)C [Example 5, tert-Butyl 5-amino-2-methylthio-4-(3-((N-(R-1-methoxycarbonyl-2-methyl-prop-1-yl)-glycinyl)-amino)-phenyl)-thieno[2,3-d]pyrimidine-6-carboxamide]
EC50 [1]: 9.63 nM
EC50 [2]: 348 nM

CN(CCO)CC(=O)Nc1cccc(-c2nc(-c3ccco3)nc3sc(C(=O)NC(C)(C)C)c(N)c23)c1 [Example 11, tert-Butyl 5-amino-2-(2-furyl)-4-(3-((N-methyl-N-(2-hydroxyethyl)-glycinyl)-amino)-phenyl)-thieno[2,3-d]pyrimidine-6-carboxamide]
EC50 [1]: 4 nM
EC50 [2]: 616 nM

CCN(CCOC)CC(=O)Nc1cccc(-c2nc(NC(C)C)nc3sc(C(=O)NC(C)(C)C)c(N)c23)c1 [Example 20, tert-Butyl 5-amino-2-isopropylamino-4-(3-((N-ethyl-N-(2-methoxyethyl)-glycinyl)-amino)-phenyl)-thieno[2,3-d]pyrimidine-6-carboxamide]
EC50 [1]: 42.4 nM
EC50 [2]: 2950 nM

C=CCOc1nc(-c2cccc(NC(=O)CN(CC)CCOC)c2)c2c(N)c(C(=O)NC(C)(C)C)sc2n1 [Example 23, tert-Butyl 5-amino-2-allyloxy-4-(3-((N-ethyl-N-(2-methoxyethyl)-glycinyl)-amino)-phenyl)-thieno[2,3-d]pyrimidine-6-carboxamide]
EC50 [1]: 36.8 nM
EC50 [2]: 1740 nM

CSc1nc(-c2cccc(NC(=O)CNC(CO)CO)c2)c2c(N)c(C(=O)NC(C)(C)C)sc2n1 [Example 8]
EC50 [1]: 26.4 nM
EC50 [2]: 1000 nM
